Data taken from US8999934B2, “Treatment of astrocytes-tumor cells inhibitors of endothelin receptors” (Board of Regents, The University of Texas System, priority 2009, dated 2015).
Several values for one entry are separate records, joined by “and”; a condition that tells them apart may be missing. Identical values can stand only once.

Key:
[1] = tested on: human PC14Br4 lung cancer cells; type: cell-based; details: for protection of tumor cells against the drug by co-culture with astrocytes: cultured alone vs with astrocytes, Adriamycin 200 ng/ml, vinblastine 3 ng/ml, vincristine 8 ng/ml, 5-FU 500 ng/ml, cisplatinum 2.4 μg/ml
Experimental: (§1) Astrocytes and NIH 3T3 fibroblasts were transfected with GFP genes as previously described (S5, S6). Target tumor cells, astrocytes, or 3T3 fibroblasts were harvested from a 60-70% confluent culture by a brief (2-minute) exposure to 0.25% trypsin in a 0.1% EDTA/PBS solution. The cells were dislodged by tapping the culture flasks briskly and resuspended in CMEM. The murine astrocytes, 3T3 fibroblasts, and tumor cells were plated alone or as co-culture at a tumor cell/astrocyte/3T3 cell ratio of 1:2 onto each of the 35-mm diameter well of the sterile 6-well tissue culture multi-well dish. The cells were allowed to adhere overnight in a humidified 37° C. incubator in an atmosphere of 6.4% carbon dioxide plus air. The cultures were then washed and incubated with fresh CMEM (negative control) or medium containing various concentrations of TAXOL® (Paclitaxel; NDC 0015-3476-30, Bristol-Myers Squibb, Princeton, N.J.) and other chemotherapeutic drugs (see below).
(§2) To determine whether direct contact between tumor cells and astrocytes (or fibroblasts serving as control) was a prerequisite to produce induction of resistance to chemotherapy, we performed the co-culture assay using a Transwell-Boyden chamber, i.e., plating the tumor cells in the chamber and the ImmortoAstrocytes (or fibroblasts) in the well. […]
In the second set of in vitro studies, we determined whether astrocyte-mediated induction of tumor cell resistance to chemotherapeutic drugs is transient or permanent. The human lung cancer PC14Br4 cells were co-cultured with either astrocytes or 3T3 fibroblasts in medium alone or medium containing 5 ng/ml paclitaxel. […] From parallel wells, we harvested surviving tumor cells and re-plated them on different monolayers of astrocytes or 3T3 cells. These co-cultures were of tumor cells first co-cultured with astrocytes and then with either astrocytes or 3T3 cells, or of tumor cells first cultured with 3T3 cells and then with either 3T3 cells or astrocytes. The second round of co-cultures then received media containing 5 ng/ml of paclitaxel. […]
(§3) The supernatant medium containing floating cells were collected from each dish into a 15-ml conical centrifuge tube. The attached cells were harvested by briefly exposing the cells to 0.25% trypsin in a solution containing 0.1% EDTA/PBS. Cells were combined with the corresponding supernatant medium. The samples were pelleted by centrifugation at 100 g for 5 minutes. The pellets were resuspended in 10 ml of HBSS and further pelleted at 100 g for 5 minutes. The samples were resuspended by vortex and the cells fixed in 1 ml of 1% paraformaldehyde for 10 minutes at room temperature. The samples were then transferred into polypropylene microcentrifuge tubes and the fixed cells were washed in 1 ml of PBS and then pelleted at 10,000 g for 1 minute. The pellets were resuspended by vortex and the cells fixed overnight in 1 ml of ethanol at −20° C. The cells were subsequently vortexed and pelleted by a microcentrifuge at 10,000 g for 1 minute. The samples were then vortexed and the pellets resuspended and stained in 300 of propidium iodide (50 μg/ml; Cat. P4864, Sigma) containing RNAse (15 μg/ml; Cat. A7973, Promega, Madison, Wis.) for 20-30 minutes at 37° C.

ETAR/ETBR = details: requires ⅓ the dose; cited from earlier work
MDA231 brain metastases [2] = assay: In vivo tumor cell proliferation, CD31/Ki67 staining of brain slices; design: species or system nude mice; details: Paclitaxel 8 mg/kg i.p. once per week, ACT-064992 50 mg/kg orally once per day, 28 days
Source text: Representative brain slices from the four treatment groups were stained for CD31 (endothelial cell marker) and Ki67 (cell proliferation marker). […] FIGS. 20A, B, C and D, respectively.

[3] = tested on: MDA231 breast cancer brain metastasis; assay: Survival study, experimental human MDA231 breast cancer brain metastasis; type: in vivo, nude mice; details: 5×10^3 MDA231 cells, treatment from day 14, Paclitaxel 5 mg/kg i.p. once weekly, individual mice
Experimental: 5×10^3 MDA231 cells were injected according to the protocol in Experiment 10. Treatment began on day 14 after injection according to the protocol in Experiment 10. A Survival curve is drawn and the p-value derived to compare the statistical significance among treatment groups.
Control (vehicle): daily oral administrations and once weekly i.p. injections.
Paclitaxel (5 mg/kg): daily oral vehicle administrations and once weekly i.p. injection of Paclitaxel.
ACT064992 (10 mg/kg): daily oral ACT064992 administrations and once weekly i.p. injections of Paclitaxel.

ETAR = assay: ETAR/phosphoserine immunostaining of brain slices; details: Paclitaxel 8 mg/kg i.p. once per week, ACT-064992 50 mg/kg orally once per day, 28 days
Experimental: Female nude mice (10-12 weeks old) were injected in the internal carotid artery with 10,000 viable MDA231 cells. Two weeks after the injection when brain metastases were established, the mice were randomized into 4 treatment groups (n=10): 1) Control (injected with vehicle solution); 2) Paclitaxel (8 mg/kg administered intraperitoneally once per week); 3) ACT-064992 (50 mg/kg administered orally once per day); and 4) Combination of ACT-064992 and Paclitaxel. All mice were euthanized after 28 days of treatment and autopsied. The brains were collected for histologic study and immunohistochemistry.
Brain slices of mice from the four treatment groups were immunostained for ETAR (red) and phosphoserine (green) colocalization produced orange-yellow color.

pAKT [4] = assay: Expression of survival factor pAKT in co-cultures of astrocytes and tumor cells; type: cell-based; details: ACT-064992 added to co-cultures of astrocytes and tumor cells
Experimental: (§4) ETR antagonists as shown above were ineffective as a single agent chemotherapy. This negative result made the dramatic effect seen with ETR antagonists as a component of combination therapies highly unexpected. In co-culture experiments, cell culture ratios were 1:2 tumor cell:astrocyte cell (50, 000:100,000), and treatments were using paclitaxel (TAXOL®) (6 ng/ml) and/or ACT-064992 (100 nM) for 48 hours (FIG. 15; *p<0.01). For the control experiments using MDA-MB-231 cells, the same astrocyte-mediated protection from paclitaxel occurred as in prior experiments. There were two surprising results from these combination experiments.

MDA231 brain metastases [5] = assay: In vivo tumor growth of MDA231 brain metastases (brain sections fixed and stained); design: species or system nude mice; details: Paclitaxel 8 mg/kg i.p. once per week, ACT-064992 50 mg/kg orally once per day, 28 days of treatment
Experimental: To further validate the efficacy of endothelin receptor antagonist therapy for existing brain metastasis, the Inventors performed exemplary in vivo experiments using mice. Nude mice were injected with 10,000 viable MDA231 cells mice by way of the internal carotid artery. […] The Inventors thus started treatments at this time point.
The treatment groups at two weeks post injection were: Control (vehicle) (FIG. […] 18B); ACT-064992 50 mg/kg, p.o. daily (FIG. […] 18D).
All mice were killed on day 28 of treatment. Brain sections were fixed and stained. Brain metastases were evaluated visually. Exemplary specimens are shown in FIG. 18A-D at the same magnifications.

[6] = tested on: human MDA-MB-231 breast cancer cells; type: cell-based
Experimental: as §1, §2, §3

pMAPK = assay: Expression of survival factor pMAPK in co-cultures of astrocytes and tumor cells; type: cell-based; details: ACT-064992 added to co-cultures of astrocytes and tumor cells
Experimental: as §4

MDA231 brain metastases [7] = assay: In vivo tumor cell apoptosis, TUNEL of brain slices; design: species or system nude mice; details: Paclitaxel 8 mg/kg i.p. once per week, ACT-064992 50 mg/kg orally once per day, 28 days
Experimental: Brain slices of mice from different treatment groups were analyzed by in situ Terminal deoxynucleotidyl transferase dUTP nick end labeling (TUNEL). Negoescu A, et al., J Histochem Cytochem. 1996 September; 44(9):959-68. […] FIG. 21A-C.

[8] = tested on: tumor cells co-cultured with astrocytes; assay: In vitro cell based chemoresistance assay with endothelin receptor antagonists (overall statement); details: higher dose Bosentan
Source text: Using the in vitro cell based chemoresistance assay scheme described above, the Inventors tested two endothelin receptor antagonists having dual ETAR and ETBR affinity to assess the degree of astrocyte-mediated protection against the cytotoxic effects of the chemotherapy agent.

pAKT [9] = assay: pAKT staining of MDA-MB-231 cells co-cultured with astrocytes and treated with Taxol; type: cell-based, human; details: MDA-MB-231 co-cultured with astrocytes; Taxol 15 ng/ml, 24 hours
Experimental: In the next set of studies, 10,000 GFP-labeled MDA-MB-231 cells were co-cultured with 20,000 astrocytes in chamber slides. Twenty-four hours later, the cultures were treated for 24 hours with Taxol (15 ng/ml) and then stained for phosphorylated pAKT (4% PFA fixation).

[10] = 100 nM, 48 hours, alone or with astrocytes or with 3T3 fibroblasts
[11] = tumor cell-astrocyte co-cultures 1:2, paclitaxel 6 ng/ml, ACT-064992 100 nM, 48 hours

For `CC[C@]1(O)C[C@H]2CN(CCc3c([nH]c4ccccc34)[C@@](C(=O)OC)(c3cc4c(cc3OC)N(C=O)[C@H]3[C@@](O)(C(=O)OC)[C@H](OC(C)=O)[C@]5(CC)C=CCN6CC[C@]43[C@@H]65)C2)C1` [vincristine], which “protection of tumor cells against the drug by co-culture with astrocytes” value (“protection of tumor cells” below) ([1]; paclitaxel 5 ng/ml) is on record?
The value was “significant (P<0.01) protection”.

For `CCCNS(=O)(=O)Nc1ncnc(OCCOc2ncc(Br)cn2)c1-c1ccc(Br)cc1` [ACT-064992, N-[5-(4-bromophenyl)-6-(2-(5-bromopyrimidin-2-yloxy)ethoxy)-pyrimidin-4-yl]-N′-propylaminosulfonamide], which “pharmaceutical activity relative to Bosentan” value (ETAR/ETBR) is on record?
The value was “roughly three times more pharmaceutically active than Bosentan”.

What about the “proliferating (Ki67) cells in brain” value (MDA231 brain metastases [2]) of the same molecule?
The value was “a large number of proliferating cells”.

What about the “Day of death (after treatment)” value ([3]; ACT064992 10 mg/kg oral daily) of the same molecule?
The value was 51 days and 63 days and 68 days and 75 days and 78 days and 82 days.

And the “phosphorylation of ETAR in brain” value (ETAR)?
The value was “prevented phosphorylation of the ETAR”.

What about the “expression of survival factor pAKT” value (pAKT [4]) of the same molecule?
Its value is “inhibited the expression”.

What about the “brain metastatic tumors (histology)” value (MDA231 brain metastases [5]) of the same molecule?
The value was “well defined metastatic tumors”.

And the “cytotoxic effects (degree of apoptosis)” value [6, 10]?
Its value is “did not produce any measurable cytotoxic effects”.

And the “effect on astrocyte-mediated protection from paclitaxel” value [6, 11]?
Its value is “negate the astrocyte-mediated protection from paclitaxel”.

And the “efficacy of paclitaxel compared to control experiments without astrocytes (super-sensitization)” value [6, 11]?
The value was “enhanced the efficacy of paclitaxel”.

And the “expression of survival factor pMAPK” value (pMAPK)?
Its value is “inhibited the expression”.

And the “apoptotic (TUNEL) cells in brain” value (MDA231 brain metastases [7])?
Its value is “few to no apoptotic cells”.

What about the “cytotoxic effects (degree of apoptosis)” value [1, 10] of the same molecule?
The value was “did not produce any measurable cytotoxic effects”.

With `COc1ccccc1Oc1c(NS(=O)(=O)c2ccc(C(C)(C)C)cc2)nc(-c2ncccn2)nc1OCCO` [Bosentan] as the molecule, how does the “results of Bosentan experiments compared with the ACT-064992 experiments” value [8] read?
Its value is “analogous results”.

Which results are given for `CC(=O)O[C@H]1C(=O)[C@@]2(C)[C@H]([C@H](OC(=O)c3ccccc3)[C@]3(O)C[C@H](OC(=O)[C@H](O)[C@@H](NC(=O)c4ccccc4)c4ccccc4)C(C)=C1C3(C)C)[C@]1(OC(C)=O)CO[C@@H]1C[C@@H]2O` [paclitaxel]?
pAKT expression by tumor cells (pAKT [9]): high levels of pAKT; proliferating (Ki67) cells in brain (MDA231 brain metastases [2]): a large number of proliferating cells; Day of death (after treatment) ([3]; oral vehicle daily): 49 day and 53 day and 60 day and 63 day and 74 day (2×) and 78 day; phosphorylation of ETAR in brain (ETAR): expressed phosphorylated ETAR; brain metastatic tumors (histology) (MDA231 brain metastases [5]): well defined metastatic tumors; reduction of relative apoptotic index of tumor cells by culturing with astrocytes (increased chemoresistance) ([6]; paclitaxel 5 ng/ml, 72 hours, co-culture with astrocytes (not 3T3 fibroblasts), mean±S.D., P<0.01): 58.3 ± 8.9%; apoptotic (TUNEL) cells in brain (MDA231 brain metastases [7]): few to no apoptotic cells; protection of tumor cells against the drug by co-culture with astrocytes ([1]; paclitaxel 5 ng/ml): significant (P<0.01) protection; reduction of relative apoptotic index of tumor cells by culturing with astrocytes (increased chemoresistance) ([1]; paclitaxel 5 ng/ml, 72 hours, co-culture with astrocytes (not 3T3 fibroblasts), mean±S.D., P<0.05): 61.8±6.7%

Which “protection of tumor cells” value ([1]; paclitaxel 5 ng/ml) does the source give for `O=c1[nH]cc(F)c(=O)[nH]1` [5-FU] here?
Its value is “significant (P<0.01) protection”.

Which “protection of tumor cells” value ([1]; paclitaxel 5 ng/ml) does the source give for `CC[C@]1(O)C[C@@H]2CN(CCc3c([nH]c4ccccc34)[C@@](C(=O)OC)(c3cc4c(cc3OC)N(C)[C@H]3[C@@](O)(C(=O)OC)[C@H](OC(C)=O)[C@]5(CC)C=CCN6CC[C@]43[C@@H]65)C2)C1` [vinblastine] here?
Its value is “significant (P<0.01) protection”.

With `N.N.[Cl][Pt][Cl]` [cisplatinum] as the molecule, how does the “protection of tumor cells” value ([1]; paclitaxel 5 ng/ml) read?
Its value is “significant (P<0.01) protection”.

With `COc1cccc2c1C(=O)c1c(O)c3c(c(O)c1C2=O)C[C@@](O)(C(=O)CO)C[C@@H]3O[C@H]1C[C@H](N)[C@H](O)[C@H](C)O1` [Adriamycin] as the molecule, how does the “protection of tumor cells” value ([1]; paclitaxel 5 ng/ml) read?
Its value is “significant (P<0.01) protection”.
